Assays:
[1] = The compound was tested for its inhibitory activity against alpha-mannosidase using p-nitrophenylmannopyranoside as substrate
[2] = The compound was tested for its competitive inhibitory activity against Alpha-mannosidase

Km [1] [µM]	Ki [2] [µM]	Structure (SMILES)
570	50	O=[N+]([O-])c1ccc(O/N=C2\OC(CO)C(O)C(O)C2O)c([N+](=O)[O-])c1 (centres undefined)
1200	80	O=C(Nc1ccccc1)O/N=C1\OC(CO)C(O)C(O)C1O (centres undefined)

From ChEMBL document CHEMBL1131404, “A new strong inhibitor of beta-mannosidase” (Bioorg Med Chem Lett, 1998)
